# Results reported in patent US20250282776A1, “Bicyclic TLR7 Agonists and Uses Thereof” (Bristol-Myers Squibb Company, priority 2024, published 2025).
# Key:
# [1] = biological target: T1, human TLR7 (hTLR7) (Homo sapiens, UniProt Q9NYK1); assay: Human TLR7 agonist activity assay (HEK-Blue TLR7 SEAP reporter); format: cell-based; settings: HEK-Blue TLR7 cells, 18 h incubation, Quanti-Blue, OD 620 nm, some values average of multiple measurements
# T1 construct: host or cells: HEK-Blue TLR7 cells (engineered human embryonic kidney cells)
# T1 sequence (Q9NYK1 27-1049): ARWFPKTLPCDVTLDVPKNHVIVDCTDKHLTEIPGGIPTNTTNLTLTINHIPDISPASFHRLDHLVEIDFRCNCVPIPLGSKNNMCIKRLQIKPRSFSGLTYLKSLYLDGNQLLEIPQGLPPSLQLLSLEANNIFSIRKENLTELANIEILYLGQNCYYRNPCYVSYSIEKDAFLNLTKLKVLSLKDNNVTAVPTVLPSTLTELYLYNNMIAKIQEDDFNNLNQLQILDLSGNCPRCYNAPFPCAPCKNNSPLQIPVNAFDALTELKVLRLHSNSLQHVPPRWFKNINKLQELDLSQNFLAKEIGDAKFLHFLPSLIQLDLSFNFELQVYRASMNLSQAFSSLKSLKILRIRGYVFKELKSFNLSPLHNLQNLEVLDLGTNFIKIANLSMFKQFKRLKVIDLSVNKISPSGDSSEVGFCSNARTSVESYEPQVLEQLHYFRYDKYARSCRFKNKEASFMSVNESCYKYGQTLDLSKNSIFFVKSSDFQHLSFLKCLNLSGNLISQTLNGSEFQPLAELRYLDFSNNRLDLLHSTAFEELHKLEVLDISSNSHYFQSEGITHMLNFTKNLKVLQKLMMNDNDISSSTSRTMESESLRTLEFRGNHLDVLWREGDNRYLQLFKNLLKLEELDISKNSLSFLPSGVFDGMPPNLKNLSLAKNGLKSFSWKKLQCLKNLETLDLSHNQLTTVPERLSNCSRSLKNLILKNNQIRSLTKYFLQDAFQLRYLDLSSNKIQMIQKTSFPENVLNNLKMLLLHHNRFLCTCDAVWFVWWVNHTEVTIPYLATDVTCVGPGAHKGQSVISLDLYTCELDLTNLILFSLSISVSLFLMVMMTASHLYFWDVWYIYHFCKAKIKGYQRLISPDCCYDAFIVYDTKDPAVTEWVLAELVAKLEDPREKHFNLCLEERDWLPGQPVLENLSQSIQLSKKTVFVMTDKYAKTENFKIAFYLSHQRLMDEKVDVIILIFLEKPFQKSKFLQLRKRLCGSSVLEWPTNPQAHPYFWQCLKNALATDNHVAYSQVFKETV
# Procedure, shortened: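 HEK-Blue TLR7 cells seeded 16-18 h, then exposed to compound for 18 h at 37 °C, 5% CO2. Secreted SEAP read with Quanti-Blue at OD 620 nm after 30 min. EC50 taken as concentration giving half-maximal response between baseline and maximum; some values averaged over repeats.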
# [2] = biological target: T2, human TLR8 (hTLR8) (Homo sapiens, UniProt Q9NR97); assay: Human TLR8 agonist activity assay (measured in a similar manner); format: cell-based; settings: HEK-Blue TLR cells, SEAP reporter, measured in a similar manner to TLR7; some values average of multiple measurements
# T2 construct: expressed in transfected cells
# T2 sequence (Q9NR97 27-1041): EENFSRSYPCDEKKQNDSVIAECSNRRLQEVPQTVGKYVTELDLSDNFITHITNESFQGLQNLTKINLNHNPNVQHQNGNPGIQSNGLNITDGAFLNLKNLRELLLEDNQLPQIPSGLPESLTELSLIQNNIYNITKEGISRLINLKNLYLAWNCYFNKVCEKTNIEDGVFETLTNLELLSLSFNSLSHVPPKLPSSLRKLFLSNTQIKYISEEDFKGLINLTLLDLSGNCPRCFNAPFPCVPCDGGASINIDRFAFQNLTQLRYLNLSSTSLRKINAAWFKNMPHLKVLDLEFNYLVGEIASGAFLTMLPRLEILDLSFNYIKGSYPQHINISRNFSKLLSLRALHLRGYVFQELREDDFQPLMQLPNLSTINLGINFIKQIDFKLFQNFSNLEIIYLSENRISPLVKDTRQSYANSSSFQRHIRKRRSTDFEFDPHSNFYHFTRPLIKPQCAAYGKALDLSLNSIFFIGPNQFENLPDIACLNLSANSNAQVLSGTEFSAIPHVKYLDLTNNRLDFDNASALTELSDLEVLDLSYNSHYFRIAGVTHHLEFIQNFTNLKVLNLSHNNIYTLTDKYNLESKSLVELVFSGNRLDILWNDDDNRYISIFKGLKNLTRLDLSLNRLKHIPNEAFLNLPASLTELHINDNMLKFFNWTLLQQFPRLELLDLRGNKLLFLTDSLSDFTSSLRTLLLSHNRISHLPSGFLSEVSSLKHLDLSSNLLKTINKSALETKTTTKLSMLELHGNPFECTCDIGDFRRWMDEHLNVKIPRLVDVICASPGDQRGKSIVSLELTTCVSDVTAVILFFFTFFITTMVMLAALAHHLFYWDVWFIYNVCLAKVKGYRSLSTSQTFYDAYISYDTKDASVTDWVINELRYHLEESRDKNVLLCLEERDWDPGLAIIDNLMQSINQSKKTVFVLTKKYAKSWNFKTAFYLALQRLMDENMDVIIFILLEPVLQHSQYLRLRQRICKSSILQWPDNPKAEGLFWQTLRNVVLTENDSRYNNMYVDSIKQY
# Procedure, shortened: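 Compounds were added to HEK-Blue TLR8 reporter cells, pre-incubated 16-18 h, then treated 18 h at 37° C, 5% CO2. SEAP output was measured with Quanti-Blue (30 min) at OD 620 nm. Some values are averages of multiple measurements.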
EC50 [1] [µM],EC50 [2] [µM],Compound
1.87,2.06,CCCCN(CCO)c1nc(N)nc2cn(Cc3c(OC)cc(CNC4CCOCC4)cc3OC)nc12 [Compound 144]
1.44,2.02,CCCCN(CCO)c1nc(N)nc2cn(Cc3c(OC)cc(CN[C@@H]4CCOC4)cc3OC)nc12 [Compound 145]
1.82,1.77,CCCCN(CCO)c1nc(N)nc2cn(Cc3c(OC)cc(CNC(C)C)cc3OC)nc12 [Compound 146]
1.81,2.02,CCCCN(CCO)c1nc(N)nc2cn(Cc3c(F)cc(C4=CCNC4)cc3OC)nc12 [Compound 147]
1.84,0.462,CCCCN(CCO)c1nc(N)nc2cn(Cc3ccc(CNC(C)(C)C)c4c3OCCC4)nc12 [Compound 148]
0.561,1.81,CCCCN(CCO)c1nc(N)nc2cn(Cc3c(F)cc(C4CCN(CCOC)CC4)cc3C#N)nc12 [Compound 149]
1.13,2.1,CCCCN(CCO)c1nc(N)nc2cn(Cc3c(F)cc(C4CCN(C5CCOCC5)CC4)cc3C#N)nc12 [Compound 150]
0.612,1.83,CCCCN(CCO)c1nc(N)nc2cn(Cc3c(F)cc(C4CCN(C(C)C)CC4)cc3C#N)nc12 [Compound 151]
0.749,1.83,CCCCN(CCO)c1nc(N)nc2cn(Cc3c(F)cc(N4CCC(NC(C)C)CC4)cc3OC)nc12 [Compound 152]
0.615,0.306,CCCCN(CCO)c1nc(N)nc2cn(Cc3ccc(CNC4CCOC4(C)C)cc3OC)nc12 (stereo not shown) [Compound 153]
2.14,1.1,CCCCN(CCO)c1nc(N)nc2cn(Cc3ccc(CNC4(CO)CCOCC4)cc3OC)nc12 [Compound 154]
1.55,2.17,CCCCN(CCO)c1nc(N)nc2cn(Cc3ccc(CCNC4CCOCC4)cc3OC)nc12 [Compound 156]
1.16,0.46,CCCCN(CCO)c1nc(N)nc2cn(Cc3ccc(CN[C@@H]4CCOC4)cc3)nc12 [Compound 157]
1.16,0.389,CCCCN(CCO)c1nc(N)nc2cn(Cc3ccc(CNC4CCOCC4)cc3)nc12 [Compound 158]
0.658,0.506,CCCCN(CCO)c1nc(N)nc2cn(Cc3ccc(CNCCOC)cc3)nc12 [Compound 161]
1.57,0.805,CCCCN(CCO)c1nc(N)nc2cn(Cc3ccc(CNC(C)C)cc3)nc12 [Compound 162]
0.196,0.614,CCCCN(c1nc(N)nc2cn(Cc3c(F)cc(C4CCN(C5CC6(COC6)C5)CC4)cc3OC)nc12)C(C)CO (stereo not shown) [Compound 164]
0.694,0.529,CCCCN(CCO)c1nc(N)nc2cn(Cc3ccc(CNC4C[C@@H](C)O[C@@H](C)C4)cc3OC)nc12 (stereo partly shown) [Compound 166]

EC50 [1] [µM],EC50 [2] [µM],Compound
0.587,1.1,CCCCN(CCO)c1nc(N)nc2cn(Cc3ccc(CN[C@H]4CCCN(C)C4)c4cccnc34)nc12 [Compound 168]
1.09,0.628,CCCCN(CCO)c1nc(N)nc2cn(Cc3ccc(CN[C@H]4CC[C@H](O)CC4)c4cccnc34)nc12 [Compound 169]
1.8,2.5,COc1cc(CN[C@H]2C[C@H](OC)C2)ccc1Cn1cc2nc(N)nc(N(CCO)CCCCF)c2n1 [Compound 170]
1.7,1.9,CCCCN(CCO)c1nc(N)nc2cn(Cc3ccc(CNC4CCOCC4)n4ncnc34)nc12 [Compound 171]
0.87,1.35,CCCCN(CCO)c1nc(N)nc2cn(Cc3ccc(CN[C@@H]4CCOC4)n4ncnc34)nc12 [Compound 172]
2.63,3.13,COc1cc(CN[C@@H]2CCOC2)ccc1Cn1cc2nc(N)nc(N(CCO)CCCCF)c2n1 [Compound 173]
0.757,1.45,CCCCN(CCO)c1nc(N)nc2cn(Cc3ccc(CN[C@H]4C[C@H](OC)C4)n4ncnc34)nc12 [Compound 174]
0.307,0.328,"CCCCN(CCO)c1nc(N)nc2cn(Cc3ccc(CNC4CCC4)n4ncnc34)nc12 [Compound 175, 2-((5-Amino-2-((5-((cyclobutylamino)methyl)-[1,2,4]triazolo[1,5-a]pyridin-8-yl)methyl)-2H-pyrazolo[4,3-d]pyrimidin-7-yl)(butyl)amino)ethan-1-ol]"
1.64,1.95,COc1cc(CNC2CCC2)ccc1Cn1cc2nc(N)nc(N(CCO)CCCCF)c2n1 [Compound 176]
0.949,1.46,CCCCN(CCO)c1nc(N)nc2cn(Cc3ccc(CO)n4ncnc34)nc12 [Compound 177]
0.121,0.213,CCCCN(c1nc(N)nc2cn(Cc3c(F)cc(C4CCN(C5CC6(COC6)C5)CC4)cc3OC)nc12)C(C)CO (stereo not shown) [Compound 179]
0.294,0.23,"CCCCN(CCO)c1nc(N)nc2cn(Cc3ccc(CNC4CCOCC4)c4scnc34)nc12 [Compound 180, 2-((5-Amino-2-((7-(((tetrahydro-2H-pyran-4-yl)amino)methyl)benzo[d]thiazol-4-yl)methyl)-2H-pyrazolo[4,3-d]pyrimidin-7-yl)(butyl)amino)ethan-1-ol]"
0.865,1.77,CCCCN(CCO)c1nc(N)nc2cn(Cc3ncc(CNC4CCC4)cc3OC)nc12 [Compound 182]
0.401,0.31,CCCCN(CCO)c1nc(N)nc2cn(Cc3ccc(CNC4CCC4)c4scnc34)nc12 [Compound 184]
0.499,0.508,"CCCCN(CCO)c1nc(N)nc2cn(Cc3ccc(CN[C@@H]4CCCN(C(=O)OC)C4)c4cccnc34)nc12 [Compound 185, Methyl (R)-3-(((8-((5-amino-7-(butyl(2-hydroxyethyl)amino)-2H-pyrazolo[4,3-d]pyrimidin-2-yl)methyl)quinolin-5-yl)methyl)amino) piperidine-1-carboxylate]"
1.69,3.49,CCCCN(CCO)c1nc(N)nc2cn(Cc3ccc(CN[C@@H]4CCCN(C(C)=O)C4)c4cccnc34)nc12 [Compound 186]
0.674,0.86,"CCCCN(CCO)c1nc(N)nc2cn(Cc3ccc(CN[C@@H]4CCOC4)n4ccnc34)nc12 [Compound 187, (R)-2-((5-Amino-2-((5-(((tetrahydrofuran-3-yl)amino)methyl)imidazo[1,2-a]pyridin-8-yl)methyl)-2H-pyrazolo[4,3-d]pyrimidin-7-yl)(butyl)amino) ethan-1-ol]"
